{"source": "patent US7138361B2", "about": "“Herbicidal heterocycles” (E. I. du Pont de Nemours and Company, priority 2000, dated 2006)", "assay_type_in_all_cases": "in vivo", "key": {"Nightshade": {"tested_on": "Nightshade", "experiment": "Test C preemergence", "conditions": "Rate 500 g/ha, visual evaluation after 12 to 14 days"}, "[1]": {"tested_on": "barnyardgrass (Echinochloa crus-galli)", "experiment": "Test C flooded paddy test", "conditions": "for Plant response rating, Barnyardgrass: scale 0 to 100 (0 no effect, 100 complete control)", "how_it_was_run": "(§1)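 Greenhouse-maintained for 12 to 14 days after treatment, the paddy plants (2-leaf stage at application) were scored visually against controls. A score of 0 denotes no effect and a score of 100 denotes complete control.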"}, "[2]": {"tested_on": "smallflower flatsedge (Cyperus difformis)", "experiment": "Test C flooded paddy test", "conditions": "for Plant response rating, Flatsedge: scale 0 to 100 (0 no effect, 100 complete control)", "how_it_was_run": "as §1"}, "rice (Oryza saliva) [3]": {"tested_on": "rice (Oryza saliva)", "experiment": "Test C flooded paddy test", "conditions": "for Plant response rating, Rice: scale 0 to 100 (0 no effect, 100 complete control)", "how_it_was_run": "as §1"}, "[4]": {"tested_on": "duck salad (Heteranthera limosa)", "experiment": "Test C flooded paddy test", "conditions": "for Plant response rating, Ducksalad: scale 0 to 100 (0 no effect, 100 complete control)", "how_it_was_run": "as §1"}, "Sunflower [5]": {"tested_on": "Sunflower", "experiment": "Test C preemergence", "conditions": "Rate 125 g/ha; scale 0 to 100, 0 no effect, 100 complete control"}, "[6]": {"tested_on": "velvetleaf (Abutilon theophrasti)", "experiment": "Test C preemergence", "how_it_was_run": "(§2)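 Visual 0–100 rating vs controls (0 = no effect, 100 = complete control) at 12–14 d, greenhouse. Compounds in non-phytotoxic solvent + surfactant; pre: sprayed after seeding; post: 1–4-leaf plants, 2–18 cm.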"}, "[7]": {"tested_on": "woolly cupgrass (Eriochloa villosa)", "experiment": "Test C preemergence", "how_it_was_run": "as §2"}, "[8]": {"tested_on": "pigweed (Amaranthus retroflexus)", "experiment": "Test C preemergence", "how_it_was_run": "as §2"}, "Sunflower [9]": {"tested_on": "Sunflower", "experiment": "Test C preemergence", "conditions": "Rate 62 g/ha, scale 0 to 100"}, "[10]": {"tested_on": "crabgrass (Digitaria sanguinalis)", "experiment": "Test B preemergence", "how_it_was_run": "(§3)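 Ratings on a 0 to 100 visual scale (100 complete control) compare treated plants with controls 13 to 15 days after application. Treatments were pre- or postemergence sprays of compound in non-phytotoxic solvent with surfactant.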"}, "[11]": {"tested_on": "barnyardgrass (Echinochloa crus-galli)", "experiment": "Test B preemergence", "how_it_was_run": "as §3"}, "[12]": {"tested_on": "morning glory (Ipomoea hederacea)", "experiment": "Test B preemergence", "how_it_was_run": "as §3"}, "corn (Zea mays)": {"tested_on": "corn (Zea mays)", "experiment": "Test B preemergence", "how_it_was_run": "as §3"}, "[13]": {"tested_on": "cocklebur (Xanthium strumarium)", "experiment": "Test B preemergence", "how_it_was_run": "as §3"}, "[14]": {"tested_on": "velvetleaf (Abutilon theophrasti)", "experiment": "Test B preemergence", "how_it_was_run": "as §3"}, "[15]": {"tested_on": "lambsquarters (Chenopodium album)", "experiment": "Test B preemergence", "how_it_was_run": "as §3"}, "[16]": {"tested_on": "giant foxtail (Setaria faberii)", "experiment": "Test B preemergence", "how_it_was_run": "as §3"}, "[17]": {"tested_on": "pigweed (Amaranthus retroflexus)", "experiment": "Test B preemergence", "how_it_was_run": "as §3"}, "rice (Oryza saliva) [18]": {"tested_on": "rice (Oryza saliva)", "experiment": "Test B preemergence", "how_it_was_run": "as §3"}, "[19]": {"tested_on": "Surinam grass (Brachiaria decumbens)", "experiment": "Test B preemergence", "how_it_was_run": "as §3"}, "Sunflower [20]": {"tested_on": "Sunflower", "experiment": "Test C preemergence", "conditions": "Rate 500 g/ha, visual evaluation after 12 to 14 days"}, "[21]": {"conditions": "Flooded Paddy, Rate 500 g/ha, scale 0 to 100, 0 no effect, 100 complete control"}, "[22]": {"conditions": "flooded paddy test, Rate 125 g/ha"}, "[23]": {"conditions": "flooded paddy test, Rate 250 g/ha"}, "[24]": {"conditions": "flooded paddy test, Rate 62 g/ha, visually evaluated after 12 to 14 days, 0 = no effect, 100 = complete control"}, "[25]": {"conditions": "Rate 125 g/ha, scale 0 to 100, 0 no effect, 100 complete control"}, "[26]": {"conditions": "preemergence, Rate 62 g/ha, scale 0 to 100"}, "[27]": {"conditions": "preemergence, Rate 500 g/ha, visual evaluation after 12 to 14 days"}, "[28]": {"conditions": "preemergence, Rate 250 g/ha, scale 0 to 100, 0 no effect, 100 complete control"}, "[29]": {"conditions": "Preemergence, Rate 500 g/ha, scale 0 to 100, 0 no effect, 100 complete control"}, "[30]": {"conditions": "preemergence, Rate 125 g/ha, scale of 0 to 100 where 0 is no effect and 100 is complete control, 13 to 15 days"}}}
{"smiles": "CCC(C)c1ccn(C2CCN(c3ccc(F)c(C(F)(F)F)c3)C2=O)n1", "note": "(stereo not drawn) [Compound 145]", "values": [{"measurement": "Plant response rating (0 to 100), Nightshade", "setting": "Nightshade", "result": 90}, {"measurement": "Barnyardgrass plant response rating", "setting": "[1]; [21]", "result": 100}, {"measurement": "Plant response rating, Barnyardgrass", "setting": "[1]; [22]", "result": 65}, {"measurement": "Plant response rating, Barnyardgrass", "setting": "[1]; [23]", "result": 85}, {"measurement": "Plant response rating (scale 0 to 100), Barnyardgrass", "setting": "[1]; [24]", "result": 30}, {"measurement": "Flatsedge plant response rating", "setting": "[2]; [21]", "result": 95}, {"measurement": "Plant response rating, Flatsedge", "setting": "[2]; [22]", "result": 80}, {"measurement": "Plant response rating, Flatsedge", "setting": "[2]; [23]", "result": 95}, {"measurement": "Plant response rating (scale 0 to 100), Flatsedge", "setting": "[2]; [24]", "result": 40}, {"measurement": "Rice plant response rating", "setting": "rice (Oryza saliva) [3]; [21]", "result": 60}, {"measurement": "Plant response rating, Rice", "setting": "rice (Oryza saliva) [3]; [22]", "result": 0}, {"measurement": "Plant response rating, Rice", "setting": "rice (Oryza saliva) [3]; [23]", "result": 20}, {"measurement": "Plant response rating (scale 0 to 100), Rice", "setting": "rice (Oryza saliva) [3]; [24]", "result": 0}, {"measurement": "Ducksalad plant response rating", "setting": "[4]; [21]", "result": 80}, {"measurement": "Plant response rating, Ducksalad", "setting": "[4]; [22]", "result": 25}, {"measurement": "Plant response rating, Ducksalad", "setting": "[4]; [23]", "result": 80}, {"measurement": "Plant response rating (scale 0 to 100), Ducksalad", "setting": "[4]; [24]", "result": 20}, {"measurement": "Plant response rating, Sunflower", "setting": "Sunflower [5]", "result": 0}, {"measurement": "Plant response rating, Velvetleaf", "setting": "[6]; [25]", "result": 0}, {"measurement": "Plant response rating, Velvetleaf", "setting": "[6]; [26]", "result": 0}, {"measurement": "Plant response rating (0 to 100), Velvetleaf", "setting": "[6]; [27]", "result": 20}, {"measurement": "Plant response rating, Velvetleaf", "setting": "[6]; [28]", "result": 0}, {"measurement": "Plant response rating, Cupgrass, Woolly", "setting": "[7]; [25]", "result": 100}, {"measurement": "Plant response rating, Cupgrass, Woolly", "setting": "[7]; [26]", "result": 20}, {"measurement": "Plant response rating (0 to 100), Cupgrass, Woolly", "setting": "[7]; [27]", "result": 100}, {"measurement": "Plant response rating, Cupgrass, Woolly", "setting": "[7]; [28]", "result": 100}, {"measurement": "Plant response rating, Pigweed", "setting": "[8]; [25]", "result": 100}, {"measurement": "Plant response rating, Pigweed", "setting": "[8]; [26]", "result": 100}, {"measurement": "Plant response rating (0 to 100), Pigweed", "setting": "[8]; [27]", "result": 100}, {"measurement": "Plant response rating, Pigweed", "setting": "[8]; [28]", "result": 100}, {"measurement": "Plant response rating, Sunflower", "setting": "Sunflower [9]", "result": 0}, {"measurement": "Plant response rating, Crabgrass", "setting": "[10]; [29]", "result": 100}, {"measurement": "Plant response rating, Crabgrass", "setting": "[10]; [30]", "result": 100}, {"measurement": "Plant response rating, Barnyardgrass", "setting": "[11]; [29]", "result": 100}, {"measurement": "Plant response rating, Barnyardgrass", "setting": "[11]; [30]", "result": 70}, {"measurement": "Plant response rating, Morningglory", "setting": "[12]; [29]", "result": 0}, {"measurement": "Plant response rating, Morningglory", "setting": "[12]; [30]", "result": 0}, {"measurement": "Plant response rating, Corn", "setting": "corn (Zea mays); [29]", "result": 0}, {"measurement": "Plant response rating, Corn", "setting": "corn (Zea mays); [30]", "result": 0}, {"measurement": "Plant response rating, Cocklebur", "setting": "[13]; [29]", "result": 0}, {"measurement": "Plant response rating, Cocklebur", "setting": "[13]; [30]", "result": 0}, {"measurement": "Plant response rating, Velvetleaf", "setting": "[14]; [29]", "result": 0}, {"measurement": "Plant response rating, Velvetleaf", "setting": "[14]; [30]", "result": 0}, {"measurement": "Plant response rating, Lambsquarters", "setting": "[15]; [29]", "result": 100}, {"measurement": "Plant response rating, Lambsquarters", "setting": "[15]; [30]", "result": 100}, {"measurement": "Plant response rating, Foxtail, Giant", "setting": "[16]; [29]", "result": 100}, {"measurement": "Plant response rating, Foxtail, Giant", "setting": "[16]; [30]", "result": 100}, {"measurement": "Plant response rating, Pigweed", "setting": "[17]; [29]", "result": 100}, {"measurement": "Plant response rating, Pigweed", "setting": "[17]; [30]", "result": 100}, {"measurement": "Plant response rating, Rice", "setting": "rice (Oryza saliva) [18]; [29]", "result": 80}, {"measurement": "Plant response rating, Rice", "setting": "rice (Oryza saliva) [18]; [30]", "result": 0}, {"measurement": "Plant response rating, Surinam grass", "setting": "[19]; [29]", "result": 60}, {"measurement": "Plant response rating, Surinam grass", "setting": "[19]; [30]", "result": 0}, {"measurement": "Plant response rating (0 to 100), Sunflower", "setting": "Sunflower [20]", "result": 50}]}
